The source made the active and inactive calls. No cut-off for these calls is given here.
Columns and labels:
[1] = molecular target: DNA (cytosine-5)-methyltransferase 3A (Homo sapiens) (UniProt Q9Y6K1); test: Inhibition of DNMT3A in human HCT-116 cells assessed as downregulation of DNMT3A protein level at 1 uM incubated for 72 hrs by Western blot analysis; assay type: cell-based
[2] = test system: K562; test: Antiproliferative activity against human K562 cells assessed as inhibition of cell proliferation at 0.1 to 100 uM incubated upto 72 hrs by MTT assay; assay type: functional, cell-based; conditions: dose 0.1-100 µM
[3] = test system: HCT-116; test: cells; conditions: Homo sapiens, HCT-116, 72 h
Description: Antiproliferative activity against human HCT-116 cells assessed as inhibition of cell proliferation incubated for 72 hrs by MTT assay

[4] = test system: THP-1; test: Antiproliferative activity against human THP-1 cells assessed as inhibition of cell proliferation at 0.1 to 100 uM incubated upto 72 hrs by MTT assay; assay type: functional, cell-based; conditions: dose 0.1-100 µM
[5] = molecular target: T1, DNMT3A2/3L complex (Homo sapiens) (UniProt Q9Y6K1+Q9UJW3); test: (§1) Inhibition of N-terminal His-tagged human DNMT3A (623 to 912 residues)/N-terminal GST-tagged human DNMT3L (160 to 387 residues) co-expressed in baculovirus infected Sf9 cells assessed as DNA methylation using DNA oligonucleotide IDT-01 as substrate at 10 uM preincubated for 15 mins followed by substrate addition in presence of [3H]-SAM and measured after 4 hrs by radioactive methylation assay; conditions: time 255.0 min
[6] = test system: HCT-116; test: Antiproliferative activity against human HCT-116 cells assessed as inhibition of cell proliferation at 0.1 to 100 uM incubated upto 72 hrs by MTT assay; assay type: functional, cell-based; conditions: dose 0.1-100 µM
[7] = molecular target: DNA (cytosine-5)-methyltransferase 3A (Homo sapiens) (UniProt Q9Y6K1); test: Inhibition of DNMT3A in human HCT-116 cells assessed as increase in p53 protein level at 1 uM incubated for 72 hrs by Western blot analysis; assay type: cell-based
[8] = test system: K562; test: Antiproliferative activity against human K562 cells assessed as inhibition of cell proliferation incubated for 72 hrs by MTT assay; assay type: functional, cell-based; conditions: K562, 72 h
[9] = test system: A549; test: cells; conditions: Homo sapiens, A549, 72 h
Description: Antiproliferative activity against human A549 cells assessed as inhibition of cell proliferation incubated for 72 hrs by MTT assay

[10] = test system: THP-1; test: Antiproliferative activity against human THP-1 cells assessed as inhibition of cell proliferation at 100 uM incubated for 24 to 72 hrs by MTT assay; assay type: functional, cell-based; conditions: time 24-72 hrs, TDE = time-dependent effect
[11] = test system: A549; test: Antiproliferative activity against human A549 cells assessed as inhibition of cell proliferation at 100 uM incubated for 24 to 72 hrs by MTT assay; assay type: functional, cell-based; conditions: time 24-72 hrs, TDE = time-dependent effect
[12] = test system: DU-145; test: Antiproliferative activity against human DU-145 cells assessed as inhibition of cell proliferation incubated for 72 hrs by MTT assay; assay type: functional, cell-based; conditions: DU-145, 72 h
[13] = molecular target: T1, DNMT3A2/3L complex (Homo sapiens); test: as §1, with “100” for “10”; conditions: time 255.0 min
[14] = molecular target: DNA (cytosine-5)-methyltransferase 1 (Homo sapiens, UniProt P26358); test: Inhibition of N-terminal GST-tagged full-length recombinant human DNMT1 assessed as DNA methylation using pdI-pdC DNA as substrate preincubated for 15 mins followed by substrate addition in presence of [3H]-SAM and measured after 150 mins by radioactive methylation assay
[15] = test system: DU-145; test: Antiproliferative activity against human DU-145 cells assessed as inhibition of cell proliferation at 0.1 to 100 uM incubated upto 72 hrs by MTT assay; assay type: functional, cell-based; conditions: dose 0.1-100 µM
[16] = test system: THP-1; test: Antiproliferative activity against human THP-1 cells assessed as inhibition of cell proliferation incubated for 72 hrs by MTT assay; assay type: functional, cell-based; conditions: THP-1, 72 h
[17] = test system: DU-145; test: Antiproliferative activity against human DU-145 cells assessed as inhibition of cell proliferation at 100 uM incubated for 24 to 72 hrs by MTT assay; assay type: functional, cell-based; conditions: time 24-72 hrs, TDE = time-dependent effect
[18] = test system: U-937; test: Antiproliferative activity against human U-937 cells assessed as inhibition of cell proliferation at 0.1 to 100 uM incubated upto 72 hrs by MTT assay; assay type: functional, cell-based; conditions: dose 0.1-100 µM
[19] = test system: K562; test: Antiproliferative activity against human K562 cells assessed as inhibition of cell proliferation at 100 uM incubated for 24 to 72 hrs by MTT assay; assay type: functional, cell-based; conditions: time 24-72 hrs, TDE = time-dependent effect
[20] = molecular target: DNMT3B (Homo sapiens, UniProt Q9UBC3); test: as §1, with “DNMT3B (564” for “DNMT3A (623”, “853” for “912”, “substrate” for “substrate at 10 uM”
[21] = molecular target: T2, Histone-lysine N-methyltransferase EHMT2 (Homo sapiens, UniProt Q96KQ7); test: Inhibition of N-terminal GST-tagged human G9a expressed in baculovirus infected Sf9 cells using biotinylated histone H3 peptide as substrate preincubated for 15 mins followed by substrate addition in presence of SAM and measured after 60 mins by AlphaLISA assay
T2 sequence (Q96KQ7 whole entry): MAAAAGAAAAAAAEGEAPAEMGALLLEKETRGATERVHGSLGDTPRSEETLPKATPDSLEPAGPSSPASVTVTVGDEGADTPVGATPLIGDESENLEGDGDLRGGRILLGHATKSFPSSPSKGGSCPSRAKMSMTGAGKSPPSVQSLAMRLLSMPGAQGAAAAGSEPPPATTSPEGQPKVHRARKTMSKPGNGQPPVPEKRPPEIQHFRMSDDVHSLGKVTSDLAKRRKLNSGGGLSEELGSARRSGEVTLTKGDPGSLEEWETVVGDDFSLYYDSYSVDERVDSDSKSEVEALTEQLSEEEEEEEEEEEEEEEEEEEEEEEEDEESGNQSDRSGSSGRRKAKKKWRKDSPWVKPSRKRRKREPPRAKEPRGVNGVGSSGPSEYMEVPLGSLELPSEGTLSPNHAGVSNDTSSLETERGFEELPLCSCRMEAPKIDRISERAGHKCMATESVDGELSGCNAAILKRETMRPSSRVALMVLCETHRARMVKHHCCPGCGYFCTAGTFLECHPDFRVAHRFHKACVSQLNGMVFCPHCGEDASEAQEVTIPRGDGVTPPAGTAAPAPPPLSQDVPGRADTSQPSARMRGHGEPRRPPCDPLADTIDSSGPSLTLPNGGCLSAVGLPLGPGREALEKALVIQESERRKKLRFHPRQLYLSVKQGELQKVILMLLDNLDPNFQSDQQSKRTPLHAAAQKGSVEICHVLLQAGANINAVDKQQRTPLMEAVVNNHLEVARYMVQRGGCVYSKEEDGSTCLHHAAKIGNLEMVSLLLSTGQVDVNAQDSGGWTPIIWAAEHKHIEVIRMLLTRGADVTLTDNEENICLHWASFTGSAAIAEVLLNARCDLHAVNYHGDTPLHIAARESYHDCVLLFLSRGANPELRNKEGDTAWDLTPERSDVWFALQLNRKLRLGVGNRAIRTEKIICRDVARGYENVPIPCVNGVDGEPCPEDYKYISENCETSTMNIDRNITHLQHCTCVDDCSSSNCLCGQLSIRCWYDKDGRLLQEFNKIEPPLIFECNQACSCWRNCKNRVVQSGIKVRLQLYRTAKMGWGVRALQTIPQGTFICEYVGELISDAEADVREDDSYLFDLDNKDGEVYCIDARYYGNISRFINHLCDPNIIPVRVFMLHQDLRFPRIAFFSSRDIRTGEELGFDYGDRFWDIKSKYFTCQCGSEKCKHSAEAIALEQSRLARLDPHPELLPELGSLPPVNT

[22] = test system: U-937; test: cells; conditions: Homo sapiens, U-937, 72 h
Description: Antiproliferative activity against human U-937 cells assessed as inhibition of cell proliferation incubated for 72 hrs by MTT assay

[23] = test system: U-937; test: Antiproliferative activity against human U-937 cells assessed as inhibition of cell proliferation at 100 uM incubated for 24 to 72 hrs by MTT assay; assay type: functional, cell-based; conditions: time 24-72 hrs, TDE = time-dependent effect
[24] = test system: HCT-116; test: Antiproliferative activity against human HCT-116 cells assessed as inhibition of cell proliferation at 100 uM incubated for 24 to 72 hrs by MTT assay; assay type: functional, cell-based; conditions: time 24-72 hrs, TDE = time-dependent effect
[25] = Cytotoxicity activity against human PBMC cells assessed as inhibition of cell proliferation incubated for 72 hrs by MTT assay; assay type: toxicity, cell-based
[26] = test system: A549; test: Antiproliferative activity against human A549 cells assessed as inhibition of cell proliferation at 0.1 to 100 uM incubated upto 72 hrs by MTT assay; assay type: functional, cell-based; conditions: dose 0.1-100 µM
[27] = molecular target: T1, DNMT3A2/3L complex (Homo sapiens); test: Competitive inhibition of N-terminal His-tagged human DNMT3A (623 to 912 residues)/N-terminal GST-tagged human DNMT3L (160 to 387 residues) co-expressed in baculovirus infected Sf9 cells assessed as DNA methylation using varying concentration of oligonucleotide IDT-01 as substrate preincubated for …; conditions: time 255.0 min

Chain of DNA (cytosine-5)-methyltransferase 3A (Homo sapiens) (Q9Y6K1 whole entry, looked up): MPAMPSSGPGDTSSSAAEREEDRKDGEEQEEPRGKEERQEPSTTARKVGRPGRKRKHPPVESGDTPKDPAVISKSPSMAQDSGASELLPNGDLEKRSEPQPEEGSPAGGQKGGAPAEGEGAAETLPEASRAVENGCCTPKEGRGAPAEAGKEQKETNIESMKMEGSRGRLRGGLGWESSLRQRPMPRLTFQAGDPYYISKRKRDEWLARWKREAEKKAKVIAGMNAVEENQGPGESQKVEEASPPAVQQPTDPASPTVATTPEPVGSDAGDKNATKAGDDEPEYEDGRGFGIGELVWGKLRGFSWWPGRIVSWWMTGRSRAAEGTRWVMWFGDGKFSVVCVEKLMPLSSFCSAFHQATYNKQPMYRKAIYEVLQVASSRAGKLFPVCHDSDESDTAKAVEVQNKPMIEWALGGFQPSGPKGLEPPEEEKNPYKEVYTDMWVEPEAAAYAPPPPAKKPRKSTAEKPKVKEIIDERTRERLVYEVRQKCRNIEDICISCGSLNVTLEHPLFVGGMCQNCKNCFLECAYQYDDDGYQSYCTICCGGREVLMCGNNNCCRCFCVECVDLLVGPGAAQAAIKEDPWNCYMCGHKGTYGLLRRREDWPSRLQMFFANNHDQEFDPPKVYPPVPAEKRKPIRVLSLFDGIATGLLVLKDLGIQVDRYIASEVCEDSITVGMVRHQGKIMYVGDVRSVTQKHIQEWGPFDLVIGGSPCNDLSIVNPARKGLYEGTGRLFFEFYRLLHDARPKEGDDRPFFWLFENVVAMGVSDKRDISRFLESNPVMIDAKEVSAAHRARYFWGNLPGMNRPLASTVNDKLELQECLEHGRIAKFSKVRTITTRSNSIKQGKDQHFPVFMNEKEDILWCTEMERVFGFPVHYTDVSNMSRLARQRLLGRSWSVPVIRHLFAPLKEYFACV
T1 sequence (Q9UJW3 whole entry, looked up, the tested form may be a part): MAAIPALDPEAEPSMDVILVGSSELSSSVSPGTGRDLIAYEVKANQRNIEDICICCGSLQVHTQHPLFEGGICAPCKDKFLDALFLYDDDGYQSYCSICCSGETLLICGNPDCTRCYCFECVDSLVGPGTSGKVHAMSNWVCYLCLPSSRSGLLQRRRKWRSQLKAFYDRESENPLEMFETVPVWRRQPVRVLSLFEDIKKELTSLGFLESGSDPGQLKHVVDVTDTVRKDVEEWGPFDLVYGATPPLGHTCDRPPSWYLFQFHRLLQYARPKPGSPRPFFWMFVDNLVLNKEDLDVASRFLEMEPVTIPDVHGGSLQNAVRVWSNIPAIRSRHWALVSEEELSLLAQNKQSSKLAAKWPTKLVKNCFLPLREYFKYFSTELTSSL
T1 sequence (Q9Y6K1 whole entry, looked up, the tested form may be a part): as the sequence (Q9Y6K1 whole entry, looked up) above
Chain of DNA (cytosine-5)-methyltransferase 1 (P26358 whole entry): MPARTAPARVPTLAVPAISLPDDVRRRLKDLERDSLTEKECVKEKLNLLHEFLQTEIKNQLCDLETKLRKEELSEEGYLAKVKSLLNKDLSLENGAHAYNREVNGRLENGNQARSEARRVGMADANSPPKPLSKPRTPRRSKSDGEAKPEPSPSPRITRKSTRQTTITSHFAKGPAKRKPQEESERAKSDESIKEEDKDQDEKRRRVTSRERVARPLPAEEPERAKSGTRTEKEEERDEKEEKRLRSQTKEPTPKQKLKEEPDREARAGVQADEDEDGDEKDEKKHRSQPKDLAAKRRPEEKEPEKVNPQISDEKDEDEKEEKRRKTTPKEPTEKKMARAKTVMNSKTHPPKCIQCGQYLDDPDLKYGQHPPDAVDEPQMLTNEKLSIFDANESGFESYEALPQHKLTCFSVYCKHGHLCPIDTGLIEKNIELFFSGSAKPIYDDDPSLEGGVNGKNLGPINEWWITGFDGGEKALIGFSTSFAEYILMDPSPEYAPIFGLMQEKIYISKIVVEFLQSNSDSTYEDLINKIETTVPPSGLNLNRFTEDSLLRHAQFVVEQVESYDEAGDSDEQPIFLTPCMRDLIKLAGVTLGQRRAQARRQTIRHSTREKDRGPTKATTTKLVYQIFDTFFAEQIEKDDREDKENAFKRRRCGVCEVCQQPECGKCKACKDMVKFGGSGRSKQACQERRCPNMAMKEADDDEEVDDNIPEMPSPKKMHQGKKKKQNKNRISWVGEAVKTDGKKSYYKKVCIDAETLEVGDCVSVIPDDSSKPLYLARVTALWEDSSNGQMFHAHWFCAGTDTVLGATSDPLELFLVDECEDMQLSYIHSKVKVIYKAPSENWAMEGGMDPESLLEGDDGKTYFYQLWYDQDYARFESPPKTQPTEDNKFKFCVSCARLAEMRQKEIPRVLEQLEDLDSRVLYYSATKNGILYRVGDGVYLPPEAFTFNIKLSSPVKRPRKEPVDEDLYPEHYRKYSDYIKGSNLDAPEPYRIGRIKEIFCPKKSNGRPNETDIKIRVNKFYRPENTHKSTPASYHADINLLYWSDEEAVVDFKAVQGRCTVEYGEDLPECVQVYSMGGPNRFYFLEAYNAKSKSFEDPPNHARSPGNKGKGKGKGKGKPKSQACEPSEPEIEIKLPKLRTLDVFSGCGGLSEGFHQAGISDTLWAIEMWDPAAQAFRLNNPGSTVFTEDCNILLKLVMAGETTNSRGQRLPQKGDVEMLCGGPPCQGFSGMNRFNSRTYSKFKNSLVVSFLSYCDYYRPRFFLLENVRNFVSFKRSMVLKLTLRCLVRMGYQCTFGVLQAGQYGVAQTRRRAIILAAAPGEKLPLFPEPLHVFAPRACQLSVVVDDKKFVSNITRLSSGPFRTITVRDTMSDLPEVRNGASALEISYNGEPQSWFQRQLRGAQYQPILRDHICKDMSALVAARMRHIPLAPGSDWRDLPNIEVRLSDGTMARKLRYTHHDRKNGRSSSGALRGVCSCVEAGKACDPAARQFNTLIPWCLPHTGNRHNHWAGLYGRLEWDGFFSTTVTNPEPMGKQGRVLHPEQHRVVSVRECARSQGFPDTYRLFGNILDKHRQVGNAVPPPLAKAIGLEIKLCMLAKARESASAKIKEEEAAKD

Compound | inhibition [1] | Activity [2] | IC50 [3] [nM] | Activity [4] | inhibition [5] [%] | Activity [6] | p53 protein level increase (active/not active) [7] | IC50 [8] [nM] | IC50 [9] [nM] | Activity [10] | Activity [11] | IC50 [12] [nM] | inhibition [13] [%] | IC50 [14] [nM] | Activity [15] | IC50 [16] [nM] | Activity [17] | Activity [18] | Activity [19] | IC50 [20] [nM] | further results
Cc1oc2ncn(CCN(C)C)c(=O)c2c1C(=O)Nc1ccc(S(N)(=O)=O)nc1 | Active | Dose-Dependent Effect | 500 | Dose-Dependent Effect | 74.7 | Dose-Dependent Effect | Active | 1600 | 4600 | Tde | Tde | 3700 | 81.8 | 20900 | Dose-Dependent Effect | 1800 | Tde | Dose-Dependent Effect | Tde | 220000 | IC50 [21]: > 500000 nM; IC50 [22]: 2300 nM; Activity [23]: Tde; Activity [24]: Tde; IC50 at 72 h [25]: 131000 nM; Activity [26]: Dose-Dependent Effect
Cc1oc2ncn(CCN3CCCC3)c(=O)c2c1C(=O)Nc1ccc(S(N)(=O)=O)nc1 | Active | Dose-Dependent Effect | 300 | Dose-Dependent Effect | 83.8 | Dose-Dependent Effect | Active | 500 | 2100 | Tde | Tde | 1700 | 93.1 | 13000 | Dose-Dependent Effect | 700 | Tde | Dose-Dependent Effect | Tde | 105000 | inhibition [27]: Active; IC50 [21]: > 500000 nM; IC50 [22]: 700 nM; Activity [23]: Tde; Activity [24]: Tde; IC50 at 72 h [25]: 91000 nM; Activity [26]: Dose-Dependent Effect
